Experimental data published in patent US8557816B2, “Aurora kinase modulators and method of use” (Amgen Inc., priority 2007, dated 2013).

Tests used:
AuroraA-TPX2 = target: T1, AuroraA-TPX2 (Homo sapiens, UniProt O14965); assay: AuroraA-TPX2 Homogeneous Time Resolved Fluorescent (HTRF) kinase assay; type: biochemical; conditions: average; read-out: AurA_IC50_IP (uM Avg)
T1 construct: 20 μL of AuroraA-TPX2 KD GST for a final volume of about 41 μL; GST
T1 sequence (O14965 133-383 limits assumed): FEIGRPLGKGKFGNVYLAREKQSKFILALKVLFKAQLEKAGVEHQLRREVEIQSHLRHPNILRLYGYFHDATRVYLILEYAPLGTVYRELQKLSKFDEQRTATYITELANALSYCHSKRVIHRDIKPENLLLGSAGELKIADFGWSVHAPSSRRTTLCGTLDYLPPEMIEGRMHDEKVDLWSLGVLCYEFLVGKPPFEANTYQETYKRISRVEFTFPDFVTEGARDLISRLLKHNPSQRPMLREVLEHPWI
T1 sequence (Q9ULW0 1-43 partner limits assumed): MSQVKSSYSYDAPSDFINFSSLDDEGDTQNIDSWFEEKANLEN
Outline: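 HTRF read-out (Eu 615 nm to APC 655 nm) of phosphorylated biotin-PLK, detected with 0.02 nM europium anti-phosphoPLK antibody and 0.0005 mg/mL SA-APC after overnight equilibration.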

AuroraB = target: T2, AuroraB (Homo sapiens, UniProt Q96GD4); assay: AuroraB Homogeneous Time Resolved Fluorescent (HTRF) kinase assay; type: biochemical; conditions: average; read-out: AurB_IC50_IP (uM Avg)
T2 construct: 20 μL of AuroraB FL H is for a final volume of 41 μL; His
T2 sequence (Q96GD4 whole entry): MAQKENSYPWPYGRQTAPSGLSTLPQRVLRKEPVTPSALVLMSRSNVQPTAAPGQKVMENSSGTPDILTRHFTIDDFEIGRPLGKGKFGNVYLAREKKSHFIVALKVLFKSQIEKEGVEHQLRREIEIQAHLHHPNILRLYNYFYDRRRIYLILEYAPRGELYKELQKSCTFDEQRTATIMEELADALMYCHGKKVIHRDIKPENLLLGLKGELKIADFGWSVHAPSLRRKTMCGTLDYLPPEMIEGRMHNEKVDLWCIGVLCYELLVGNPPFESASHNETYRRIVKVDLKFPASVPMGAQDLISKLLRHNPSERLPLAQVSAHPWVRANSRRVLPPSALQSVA
Outline: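 Read-out is time-resolved FRET between europium anti-phospho-H3 antibody and streptavidin-APC, added in EDTA buffer to stop the reaction and equilibrated about 60 min (ex 320, em 615 and 655 nm). Preceding reaction: ~90 min, full-length enzyme, ATP, 0.1 μM biotin-Histone H3 substrate, Mg/Mn HEPES buffer pH 7.5.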

IC50 (AuroraA-TPX2) [µM]	IC50 (AuroraB) [µM]	SMILES
0.02	0.005	Oc1cnc2c(Oc3ccc(Nc4nnc(-c5ccc(Cl)cc5)c5ccccc45)cc3)ccnc2c1 [Example 409, 8-(4-(4-(4-Chlorophenyl)phthalazin-1-ylamino)phenoxy)-1,5-naphthyridin-3-ol]
0.012	0.002	c1cnc2c(Sc3ccc(Nc4nnc(-c5ccc6c(c5)OCO6)c5ccccc45)cc3)ccnc2c1 [compound 443]
1.61	0.156	COc1cnc2c(Oc3ccc(Nc4nnc(-c5c(C)nn(C)c5C)c5ccccc45)cc3)ccnc2c1 [compound 261, N-(4-((7-(methyloxy)-1,5-naphthyridin-4-yl)oxy)phenyl)-4-(1,3,5-trimethyl-1H-pyrazol-4-yl)-1-phthalazinamine]
0.039	0.011	Clc1ccc(-c2nnc(Nc3ccc(Oc4ccnc5cccnc45)cc3)c3ccccc23)cc1 [compound 448]
0.128	0.022	FC1(F)Oc2ccc(-c3nnc(Nc4ccc(Sc5ccnc6cccnc56)cc4)c4ccccc34)cc2O1 [compound 444]
0.189	0.01	COc1cnc2c(Sc3ccc(Nc4nnc(SC)c5ccccc45)cc3)ccnc2c1 [compound 514]
0.05	0.008	Clc1ccc(-c2nnc(Nc3ccc(Sc4ccnc5c4CCCN5)cc3)c3ccccc23)cc1 [compound 570]
0.1	0.008	Clc1ccc(-c2nnc(Nc3ccc(Sc4ccnc5ccncc45)cc3)c3ccccc23)cc1 [compound 426]
0.061	0.013	C#Cc1ccc(-c2nnc(Nc3ccc(Oc4ccnc5cc(OC)cnc45)cc3)c3ccccc23)cc1 [compound 287, 4-(4-ethynylphenyl)-N-(4-((7-(methyloxy)-1,5-naphthyridin-4-yl)oxy)phenyl)-1-phthalazinamine]
1.29	0.015	Cc1cccc(-c2nnc(Nc3ccc(Sc4ccnc5ccoc45)cc3)c3ccccc23)n1 [compound 488]
1	0.058	COc1cnnc(Nc2ccc(Oc3ccnc4cc(OC)cnc34)cc2)c1 [compound 456]
0.156	0.011	CCc1cc(-c2ccc(Cl)cc2)nnc1Nc1ccc(Oc2ccnc3cc(OC)cnc23)nc1 [compound 275, 6-(4-chlorophenyl)-4-ethyl-N-(6-(7-methoxy-1,5-naphthyridin-4-yloxy)pyridin-3-yl)pyridazin-3-amine]
1.66	3.2	COc1cc(OC)c2c(Sc3ccc(Nc4nnc(-c5cc(C)cs5)c5ccccc45)cc3)ccnc2c1 [compound 439]
0.141	0.018	Clc1ccc(-c2nnc(Nc3ccc(Sc4ccnc5cc(C6CC6)oc45)cc3)c3ccccc23)cc1 [compound 486]
0.089	0.001	Clc1ccc(-c2nnc(Nc3ccc(Oc4ccnc5[nH]ccc45)cc3)c3ccccc23)cc1 [compound 241, 4-(4-chlorophenyl)-N-(4-(1H-pyrrolo[2,3-b]pyridin-4-yloxy)phenyl)-1-phthalazinamine]
0.03	0.013	c1cnc2c(Sc3ccc(Nc4nnc(-c5ccc6c(c5)CCO6)c5ccccc45)cc3)ccnc2c1 [compound 445]
0.128	0.013	O=c1ccc2nccc(Oc3ccc(Nc4nnc(-c5ccc(Cl)cc5)c5ccccc45)cc3)c2[nH]1 [compound 569]
0.016	0.009	COc1cnc2c(Oc3ccc(Nc4nnc(N5CCCCCC5)c5ccccc45)cc3)ccnc2c1 [Example 32, 4-(azepan-1-yl)-N-(4-(7-methoxy-1,5-naphthyridin-4-yloxy)phenyl)phthalazin-1-amine]
0.042	0.007	O=c1ccc2nccc(Sc3ccc(Nc4nnc(-c5ccc(Cl)cn5)c5ccccc45)cc3)c2[nH]1 [Example 405, 8-(4-(4-(5-Chloropyridin-2-yl)phthalazin-1-ylamino)phenylthio)-1,5-naphthyridin-2(1H)-one]

IC50 (AuroraA-TPX2) [µM]	IC50 (AuroraB) [µM]	SMILES
5	0.031	c1ccc(-c2nnc(Nc3ccc(Oc4ccnc5c4NCCC5)cc3)c3ccccc23)cc1 [compound 230, 4-phenyl-N-(4-(5,6,7,8-tetrahydro-1,5-naphthyridin-4-yloxy)phenyl)-1-phthalazinamine]
0.309	0.026	COc1ccc2nccc(Sc3ccc(Nc4nnc(-c5cccc(C)n5)c5ccccc45)cc3)c2n1 [compound 419]
0.743	0.024	COc1cnc2c(Oc3ccc(Nc4nnc(-c5cncnc5)c5ccccc45)cc3)ccnc2c1 [compound 215, N-(4-((7-(methyloxy)-1,5-naphthyridin-4-yl)oxy)phenyl)-4-(5-pyrimidinyl)-1-phthalazinamine]
0.091	0.056	O=C(c1cc2nccc(Sc3ccc(Nc4nnc(-c5ccccc5)c5ccccc45)cc3)c2s1)N1CCOCC1 [compound 313, morpholino(7-(4-(4-phenylphthalazin-1-ylamino)phenylthio)thieno[3,2-b]pyridin-2-yl)methanone]
0.165	0.014	COc1cncc(-c2nnc(Nc3ccc(Oc4ccnc5cc(OC)cnc45)cc3)c3ccccc23)c1 [compound 129, N-(4-((7-(methyloxy)-1,5-naphthyridin-4-yl)oxy)phenyl)-4-(5-(methyloxy)-3-pyridinyl)-1-phthalazinamine]
0.414	0.041	COc1cnc2c(Oc3ccc(Nc4nnc(-c5cc(F)ccc5OC)c5ccccc45)cc3)ccnc2c1 [compound 80, 4-(5-fluoro-2-(methyloxy)phenyl)-N-(4-((7-(methyloxy)-1,5-naphthyridin-4-yl)oxy)phenyl)-1-phthalazinamine]
0.02	0.002	Clc1ccc(-c2nnc(Nc3ccc(Sc4ccnc5cccnc45)cc3)c3ccccc23)nc1 [compound 493]
0.038	0.009	Clc1ccc(-c2nnc(Nc3ccc(Sc4ccnc5[nH]ccc45)cc3)c3ccccc23)cc1 [compound 330, 4-(4-chlorophenyl)-N-(4-(1H-pyrrolo[2,3-b]pyridin-4-ylthio)phenyl)-1-phthalazinamine]
0.176	0.024	Brc1ccc2nccc(Oc3ccc(Nc4nnc(-c5ccccc5)c5ccccc45)cc3)c2c1 [compound 134, N-(4-((6-bromo-4-quinolinyl)oxy)phenyl)-4-phenyl-1-phthalazinamine]
0.401	0.675	COc1cc(OC)c2c(Sc3ccc(Nc4nnc(-c5ccc(Cl)cc5)c5ccccc45)cc3)ccnc2c1 [compound 436]
0.16	0.006	COc1cnc2c(Oc3ccc(Nc4nnc(-c5cnn(C)c5)c5ccccc45)cc3)ccnc2c1 [compound 216, N-(4-((7-(methyloxy)-1,5-naphthyridin-4-yl)oxy)phenyl)-4-(1-methyl-1H-pyrazol-4-yl)-1-phthalazinamine]
0.104	0.009	COc1cnc2c(Oc3ccc(Nc4nnc(-c5cccnc5F)c5ccccc45)cc3)ccnc2c1 [compound 191, 4-(2-fluoro-3-pyridinyl)-N-(4-((7-(methyloxy)-1,5-naphthyridin-4-yl)oxy)phenyl)-1-phthalazinamine]
0.027	0.002	CCc1cc(-c2ccc(C)cc2)nnc1Nc1ccc(Oc2ccnc3cc(OC)cnc23)cc1 [compound 199, 4-ethyl-N-(4-((7-(methyloxy)-1,5-naphthyridin-4-yl)oxy)phenyl)-6-(4-methylphenyl)-3-pyridazinamine]
1.66	0.039	c1ccc(-c2nnc(Nc3ccc(Oc4ncnc5[nH]ccc45)cc3)c3ccccc23)cc1 [compound 273, N-(4-(7H-pyrrolo[2,3-d]pyrimidin-4-yloxy)phenyl)-4-phenylphthalazin-1-amine]
0.038	0.005	COc1cnc2c(Oc3ccc(Nc4nnc(-c5ccc(SC)cc5)c5ccccc45)cc3)ccnc2c1 [compound 237, N-(4-((7-(methyloxy)-1,5-naphthyridin-4-yl)oxy)phenyl)-4-(4-(methylthio)phenyl)-1-phthalazinamine]
0.332	0.015	N#Cc1cnc2c(Oc3ccc(Nc4nnc(-c5ccccc5)c5ccccc45)cc3)ccnc2c1 [Example 44, 8-(4-(4-phenylphthalazin-1-ylamino)phenoxy)-1,5-naphthyridine-3-carbonitrile]
0.183	0.165	FC(F)(F)Oc1ccc2c(Oc3ccc(Nc4nnc(-c5ccc(Cl)cc5)c5ccccc45)cc3)ccnc2c1 [compound 498]
0.014	0.005	COc1cnc2c(Oc3ccc(Nc4nnc(-c5ccc(C)c(F)c5)c5ccccc45)cc3)ccnc2c1 [compound 243, 4-(3-fluoro-4-methylphenyl)-N-(4-((7-(methyloxy)-1,5-naphthyridin-4-yl)oxy)phenyl)-1-phthalazinamine]
0.011	0.002	c1ccc(-c2nnc(Nc3ccc(Oc4ccnc5cc(N6CCOCC6)ccc45)cc3)c3ccccc23)cc1 [Example 42, N-(4-(7-Morpholinoquinolin-4-yloxy)phenyl)-4-phenylphthalazin-1-amine]
